The structures appear in SMILES notation.

For data set [1], the system named is microvessel growth (chick aortic ring). The data set can be described thus: Vascular growth assay on chick embryos (chick aortic ring assay). The class given is cell-based. The text has this: The ongoing research will make it possible to specify its effectiveness, compared with thalidomide alone, in blocking tumor development.
The nature of data set [2]: Radioactivity in organs of mice carrying B16 melanomas after IP injection of molecule A. The class given is in vivo. Further details: Radioactivity measured: unit not given here. Particulars: for Radioactivity measured: 10 μCi/animal.
Another data set concerns B16 melanoma cells. The data set can be described thus: Toxicity / cytotoxicity on B16 melanoma cells. The class given is cell-based. As to the method:
The cytotoxicity of this molecule was tested on B16 melanoma cells; no toxicity could be measured up to concentrations of greater than 100 μM.

The next data set relates to fibroblasts. The experiment in a line: Toxicity on cell cultures of fibroblasts. The data set is classed as cell-based.
Another data set is described as follows: Water-solubility. The class given is physicochemical. The text has this: As has been seen, however, the growth of a cancerous tumor is closely linked to its rate of vascularization and therefore to the phenomenon of angiogenesis that accompanies it. These observations had the scientific community to develop substrates, as has been seen, capable of inhibiting angiogenesis and therefore of blocking, by this means, the development of tumors. It is in fact now commonly accepted that membrane proteins carried by the angiogenic cells, and called integrins, participate actively in the process of proliferation of these cells. More particularly, αVβ3 integrins recognize a specific peptide sequence, the RGD (arginine-glycine-aspartic acid) sequence. The grafting of this unit onto the proposed vector should therefore provide it with an ability to specifically target angiogenic sites and therefore, ultimately, tumor sites. The addition, to this same vector, of an antimitotic agent should allow the selective destruction of the cancerous cells. In this perspective, molecule B was initially prepared to verify the innocuousness of the vector and to determine its specificity. In order to give the targeting agent a greater degree of freedom, said targeting agent was grafted onto the central lysine by means of a […] amino acid, serine. The molecule is water-soluble and is amphiphilic in nature. [drawing 11]

A short description of data set [3]: Radioactivity in mice carrying B16 melanoma after IV injection of iodine 125-labeled molecule B. The note with it: for Radioactivity measured: 10 μCi/animal. Set-up: Radioactivity measured: unit not given here. The data set is classed as in vivo.
The subject of data set [4] is fibroblasts exhibiting the NARP mutation. The data set is classed as cell-based. The text has this:
The aim pursued here was to refine and to simplify the structure of these substrates while at the same time conserving their biological activity in order to develop a synthetic process that can be readily adapted to the industrial phase.

As for `O=C1CCC(N2C(=O)c3ccccc3C2=O)C(=O)N1` (stereo not drawn) [thalidomide, reference compound], in data set [1] (at such concentrations (20 μM, 200 μM)), the Inhibiting microvessel growth result is on record as “ineffective”.
For `O=C1CCC(N2C(=O)c3ccc(C(=O)NC(Cc4ccc(O)cc4)C(=O)NCCCCC(NC(=O)C(O)[C@H](O)[C@H](O[C@@H]4OC(CO)[C@H](O)[C@H](O)C4O)C(O)CO)C(=O)NCCC(F)(F)C(F)(F)C(F)(F)C(F)(F)C(F)(F)C(F)(F)C(F)(F)C(F)(F)F)cc3C2=O)C(=O)N1` (stereo partly drawn) [molecule A], the Radioactivity measured in data set [2] (Blood, 15 min after IP injection) stood at 5.9 ± 1.2; in data set [2] (Blood, 1 h after IP injection) it was 3.4 ± 0.7; in data set [2] (Kidney, 15 min after IP injection), 4.6 ± 0.5; in data set [2] (Kidney, 1 h after IP injection) it was 4.0 ± 0.9; in data set [2] (Liver, 15 min after IP injection), 4.5 ± 1.1; in data set [2] (Liver, 1 h after IP injection), 2.2 ± 0.8. The Radioactivity measured in data set [2] (Thyroid, 15 min after IP injection) turned out to be 5.6 ± 0.8; in data set [2] (Thyroid, 1 h after IP injection), 9.8 ± 1.7; in data set [2] (Tumor (center), 15 min after IP injection), 2.6 ± 0.5; in data set [2] (Tumor (center), 1 h after IP injection), 2.7 ± 0.5; in data set [2] (Tumor (stroma), 15 min after IP injection) it was 4.5 ± 0.7; in data set [2] (Tumor (stroma), 1 h after IP injection), 5.4 ± 0.2. Also, in data set [2] (mice carrying B16 melanomas, IP injection), the Localisation in vivo result is given as “concentrated in the stroma of the tumor”. The Inhibiting microvessel growth result in data set [1] (at 20 μM) is reported as “effective”; in data set [1] (at 200 μM), “completely blocks the development”. The “Toxicity on cell cultures” value in the data set on B16 melanoma cells (B16 melanomas) and with fibroblasts was “no totally unacceptable toxicity” each time.
Consider `COC(=O)C(CCCCNC(=O)C(Cc1ccc(O)cc1)NC(=O)C(C)(C)C(C)(C)C(F)(F)C(F)(F)C(F)(F)C(F)(F)C(F)(F)C(F)(F)C(F)(F)C(F)(F)F)NCC(CO)NC(=O)C(CC(=O)O)NC(=O)CNC(=O)C(N)CCCNC(=N)N` (stereo not drawn) [molecule B], for which the Water-solubility result in the data set “Water-solubility” is given as “water-soluble”. Moreover, the Radioactivity measured in data set [3] (Blood, 15 min after IV injection) is reported as 5.8 ± 0.8; in data set [3] (Blood, 30 min after IV injection), 4.5 ± 0.8; in data set [3] (Blood, 1 h after IV injection), 3.6 ± 0.7; in data set [3] (Kidney, 15 min after IV injection) it was 8.9 ± 1.6; in data set [3] (Kidney, 30 min after IV injection) it was 5.9 ± 0.6; in data set [3] (Kidney, 1 h after IV injection), 3.5 ± 0.6. Moreover, the Radioactivity measured is 4.8 ± 0.8 in data set [3] (Liver, 15 min after IV injection); 2.2 ± 0.6 in data set [3] (Liver, 30 min after IV injection); 2.4 ± 0.7 in data set [3] (Liver, 1 h after IV injection); 5.9 ± 1.2 in data set [3] (Thyroid, 15 min after IV injection); 10.2 ± 2.5 in data set [3] (Thyroid, 30 min after IV injection); 15.3 ± 5.3 in data set [3] (Thyroid, 1 h after IV injection). In addition, the Radioactivity measured in data set [3] (Tumor (center), 15 min after IV injection) came out at 1.7 ± 0.6; in data set [3] (Tumor (center), 30 min after IV injection) it was 1.8 ± 0.3; in data set [3] (Tumor (center), 1 h after IV injection) it was 2.4 ± 0.4; in data set [3] (Tumor (stroma), 15 min after IV injection), 3.9 ± 0.8; in data set [3] (Tumor (stroma), 30 min after IV injection) it was 3.8 ± 0.9; in data set [3] (Tumor (stroma), 1 h after IV injection) it was 4.2 ± 0.6. In addition, the Localisation in vivo entry in data set [3] (iodine 125-labeled, injected intravenously, mice carrying a melanoma) is recorded as “accumulates in the stroma of the tumor”. Also, the “Cytotoxicity: concentration up to which no toxicity could be measured” value in the data set with B16 melanoma cells (B16 melanoma cells) was “greater than 100 μM”.
For `CC(C)(C)/[N+]([O-])=C/c1ccc(C(=O)NCCCCC(NC(=O)C(O)[C@H](O)[C@H](O[C@@H]2OC(CO)[C@H](O)C(O)C2O)C(O)CO)C(=O)NCCC(F)(F)C(F)(F)C(F)(F)C(F)(F)C(F)(F)C(F)(F)C(F)(F)C(F)(F)F)cc1` (stereo partly drawn) [molecule E], the Toxicity result in data set [4] is “No toxicity was measured”. In addition, in data set [4] (NARP fibroblasts, in vitro), the Cell protection entry was “exhibits a capacity for cell protection” and the “Effect on the apoptotic process” value was “inhibits the apoptotic process”.
